Measurements from ChEMBL document CHEMBL5055670, “Sublyratins A-O, Labdane-Type Diterpenoids from Croton sublyratus” (J Nat Prod, 2021).
Where a name gives a salt, the structure may show the parent alone.

How the values were obtained:
[1] = tested on: HL-60; test: Cytotoxicity against human HL-60 cells assessed as cell growth inhibition incubated for 72 hrs by CCK8 assay; assay type: functional, cell-based; conditions: HL-60, 72 h
[2] = tested on: A549; test: Cytotoxicity against human A549 cells assessed as cell growth inhibition by SRB assay; assay type: functional, cell-based

Row | Compound | IC50 [1] | IC50 [2]
1 | C=C[C@@](C)(O)[C@H]1C[C@H]2C(=CC[C@H]3C(C)(C)CCC[C@]23C)C(=O)O1 | 2800 nM | > 10000 nM
2 | C=C[C@](C)(O)[C@H]1C[C@H]2C(=CC[C@H]3C(C)(C)CCC[C@]23C)C(=O)O1 | 2600 nM | > 10000 nM
3 | C=C[C@](C)(O)[C@@H]1C[C@H]2C(=CC[C@H]3C(C)(C)CCC[C@]23C)C(=O)O1 | 2400 nM | > 10000 nM
4 | C=C[C@@](C)(O)[C@@H]1C[C@H]2C(=CC[C@H]3C(C)(C)CCC[C@]23C)C(=O)O1 | 1500 nM | > 10000 nM
5 | COc1cccc2c1C(=O)c1c(O)c3c(c(O)c1C2=O)C[C@@](O)(C(=O)CO)C[C@@H]3O[C@H]1C[C@H](N)[C@H](O)[C@H](C)O1 [DOXORUBICIN HYDROCHLORIDE] | – | 850 nM
